pIC50: −log10 of the molar value. Activity calls are given as the source filed them. No cut-off for these calls is given here.

This is an account of results in ChEMBL document CHEMBL6134874, “Identification of Nitric Oxide Donating Dasatinib Derivatives with Intraocular Pressure Lowering and Senolytic Activities” (J Med Chem, 2025).

A short description of series [1]: Senolytics index ratio of IC50 for antiproliferative activity against mouse MEF cells to IC50 for inhibition of senescence in mouse MEF cells. The format is functional.
Series [2] can be described thus: Inhibition of senescence in mouse MEF cells measured after 72 hrs by CCK-8 method. In kind it is functional, cell-based. A general note: Tetrazolium assays rely on reduction of a dye to a coloured formazan, in cell work by metabolically active cells.
The nature of series [3]: Antiproliferative activity against mouse MEF cells assessed as inhibition of cell proliferation measured after 72 hrs by CCK-8 method. In kind it is functional, cell-based.
In series [4] the test system is HTM. Nature of the series: Upregulation of NO level in HTM cells at 5 uM incubated for 12 hrs by DAF-FM DA fluorescent probe based flow cytometry analysis. In kind it is functional, cell-based. The conditions noted are these: Homo sapiens. In general terms: In flow cytometry, cells or beads pass a laser one at a time.
In series [5] the test system is Mus musculus. Nature of the series: Neuroprotective activity against magnetic microbead-induced ocular hypertensive COHT C57BL/6J mouse model assessed as protection effect on retinal ganglion cells (RGC) at 10 mM administered eye drop thrice a day for 10 days. The format is functional, organism-based. The note with it: time 10.0 day.
The test system of series [6] is Mus musculus. Nature of the series: Neuroprotective activity against magnetic microbead-induced ocular hypertensive COHT C57BL/6J mouse model assessed as improvement in peak time of N1 wave at 10 mM administered eye drop thrice a day for 10 days […]. The format is functional, organism-based. The conditions noted are these: time 10.0 day.
Series [7] has as its system Mus musculus. Nature of the series: Neuroprotective activity against magnetic microbead-induced ocular hypertensive COHT C57BL/6J mouse model assessed as increase in retinal ganglion cells (RGC) survival at 10 mM administered eye drop thrice a day for 10 days by immunofluorescence staining based analysis. In kind it is functional, organism-based. The conditions noted are these: time 10.0 day.

For series [8], the system named is Mus musculus. Nature of the series: Anti-glaucoma activity against magnetic microbead-induced ocular hypertensive COHT C57BL/6J mouse model assessed as reduction in fraction of SA-beta-Gal positive area in retina at 10 mM administered eye drop thrice a day for 10 days by SA-beta Gal staining based […]. The format is functional, organism-based. The conditions noted are these: time 10.0 day.

For series [9], the system named is Mus musculus. Nature of the series: Anti-glaucoma activity against magnetic microbead-induced ocular hypertensive COHT C57BL/6J mouse model assessed as reduction in intraocular pressure administered as 10 mM eye drop measured after 2 to 4 hrs. The note with it: time 2-4 hrs. In kind it is functional, organism-based.
For series [10], the system named is HTM. Nature of the series: Upregulation of cGMP level in HTM cells at 5 uM incubated for 24 hrs by ELISA method. The format is functional, cell-based. The note with it: Homo sapiens. A general note: ELISA stands for enzyme-linked immunosorbent assay.
Series [11] deals with HTM. Nature of the series: Anti-glaucoma activity in BLEO-induced senescence in HTM cells assessed as decrease in proportion of SA-beta-Gal positive cells at 5 uM measured for 48 hrs by senescence-associated galactosidase staining based microscopic analysis. In kind it is functional, cell-based. The note with it: Homo sapiens.
The subject of series [12] is Mus musculus. Nature of the series: Anti-glaucoma activity against magnetic microbead-induced ocular hypertensive COHT C57BL/6J mouse model assessed as reduction in number of SA-betaGal positive cells per unit area of whole flat-mount retina at 10 mM administered eye drop thrice a day for 10 days by SA-beta Gal staining based […]. In kind it is functional, organism-based. The note with it: time 10.0 day.

For series [13], the system named is Mus musculus. Nature of the series: Neuroprotective activity against magnetic microbead-induced ocular hypertensive COHT C57BL/6J mouse model assessed as improvement in N1 wave amplitude at 10 mM administered eye drop thrice a day for 10 days […]. In kind it is functional, organism-based. The conditions noted are these: time 10.0 day.

Series [14] concerns Mus musculus. Nature of the series: Anti-glaucoma activity against magnetic microbead-induced ocular hypertensive COHT C57BL/6J mouse model assessed as reduction in intraocular pressure administered as 10 mM eye drop measured after 8 hrs. The format is functional, organism-based.
Series [15] relates to Mus musculus. Nature of the series: Neuroprotective activity against magnetic microbead-induced ocular hypertensive COHT C57BL/6J mouse model assessed as improvement in visual acuity of mouse at 10 mM administered eye drop thrice a day for 10 days by Optokinetic Reflex Assay. The format is functional, organism-based. The note with it: time 10.0 day.
Series [16] is described as follows: Toxicity in C57BL/6J mouse assessed as effect on discernible conjunctival hyperemia administered as 10 mM eye drop measured up to 4 hrs. The conditions noted are these: in vivo, topical_or_ocular, 10000 µM.
Series [17] has as its system Mus musculus. Nature of the series: Anti-glaucoma activity against magnetic microbead-induced ocular hypertensive COHT C57BL/6J mouse model assessed as intraocular pressure lowering efficacy administered as 10 mM eye drop measured after 4 hrs. In kind it is functional.
For series [18], the system named is Mus musculus. Nature of the series: Anti-glaucoma activity against magnetic microbead-induced ocular hypertensive COHT C57BL/6J mouse model assessed as reduction in intraocular pressure administered as 10 mM eye drop measured after 2 to 8 hrs. The format is functional, organism-based. The note with it: time 2-8 hrs.

Consider `Cc1nc(Nc2ncc(C(=O)Nc3c(C)cccc3Cl)s2)cc(N2CCN(CCO[N+](=O)[O-])CC2)n1`, for which the “Ratio IC50” value in [1] is reported as 1.29. The pIC50 in series [2] (Mus musculus, MEF, 72 h) was 5.92; in [3] (Mus musculus, MEF, 72 h), 5.82. In addition, the result in the series on HTM [4] was Active.

Take `Cc1nc(Nc2ncc(C(=O)Nc3c(C)cccc3Cl)s2)cc(N2CCN(CCOC(=O)CCC(=O)OCCCCCO[N+](=O)[O-])CC2)n1`: the “Ratio IC50” value in [1] is on record as 0.4. Besides, the pIC50 in [2] (Mus musculus, MEF, 72 h) is 5.48; in [3] (Mus musculus, MEF, 72 h), 5.88.

For `Cc1nc(Nc2ncc(C(=O)Nc3c(C)cccc3Cl)s2)cc(N2CCN(CCOC(=O)CCC(=O)OCCOCCOc3no[n+]([O-])c3S(=O)(=O)c3ccccc3)CC2)n1` [listing 1 of 2 here], the values for the Activity entry with Mus musculus [5] and with Mus musculus [7] were “Active; Compound Showed Significant Effect Than Dasatinib” and “Active; Compound Showed More Pronounced Effect Then Dasatinib”, respectively. The result in the series on Mus musculus [6], in the series with Mus musculus [8], with Mus musculus [9], in the series on HTM [10], in the series with HTM [4] and in the series on HTM [11] was Active. Also, the result in the series with Mus musculus [12], with Mus musculus [13] and in the series with Mus musculus [15] was Active. The outcome with Mus musculus [14] was inactive.

For the compound `Cc1nc(Nc2ncc(C(=O)Nc3c(C)cccc3Cl)s2)cc(N2CCN(CCOC(=O)CCC(=O)OCCOCCOc3no[n+]([O-])c3S(=O)(=O)c3ccccc3)CC2)n1` [listing 2 of 2 here], in series [1], the “Ratio IC50” value is given as 2.28. In addition, the pIC50 was 6.32 in series [2] (Mus musculus, MEF, 72 h) and 5.96 in [3] (Mus musculus, MEF, 72 h).

On to `Cc1nc(Nc2ncc(C(=O)Nc3c(C)cccc3Cl)s2)cc(N2CCN(CCOC(=O)CCC(=O)OCCO[N+](=O)[O-])CC2)n1`, for which the “Ratio IC50” value in [1] came to 4.3. Moreover, the pIC50 in series [2] (Mus musculus, MEF, 72 h) is 6.39; in series [3] (Mus musculus, MEF, 72 h), 5.76.

As for `CS(=O)(=O)O.CS(=O)(=O)O.CS(=O)(=O)O.Cc1nc(Nc2ncc(C(=O)Nc3c(C)cccc3Cl)s2)cc(N2CCN(CCOC(=O)CCC(=O)OCCCCOc3no[n+]([O-])c3S(=O)(=O)c3ccccc3)CC2)n1`, the “Ratio IC50” value in series [1] is recorded as 1.76. Further, the values for the pIC50 in [2] (mef) and in series [3] (mef) were 6.12 and 5.88, respectively.

Take `CS(=O)(=O)O.CS(=O)(=O)O.CS(=O)(=O)O.Cc1nc(Nc2ncc(C(=O)Nc3c(C)cccc3Cl)s2)cc(N2CCN(CCOC(=O)CCC(=O)OCCOCCOc3no[n+]([O-])c3S(=O)(=O)c3ccccc3)CC2)n1`: the Activity entry is “Non-toxic” in series [16] and 3.6 mmHg in the series on Mus musculus [17]. Moreover, the “Ratio IC50” value in [1] came to 3.25. The pIC50 in [2] (mef) is 6.42; in series [3] (mef), 5.91.

For `Cc1nc(Nc2ncc(C(=O)Nc3c(C)cccc3Cl)s2)cc(N2CCN(CCOC(=O)CCC(=O)OCCCCO[N+](=O)[O-])CC2)n1`, the “Ratio IC50” value in series [1] turned out to be 1.67. Also, the pIC50 in series [2] (Mus musculus, MEF, 72 h) is 5.97; in [3] (Mus musculus, MEF, 72 h), 5.75.

With `Cc1nc(Nc2ncc(C(=O)Nc3c(C)cccc3Cl)s2)cc(N2CCN(CCOC(=O)COc3no[n+]([O-])c3C)CC2)n1`, in series [1], the “Ratio IC50” value amounted to 2.45. Further, the pIC50 in series [2] (Mus musculus, MEF, 72 h) was 6.28; in series [3] (Mus musculus, MEF, 72 h) it was 5.89.

Consider `Cc1nc(Nc2ncc(C(=O)Nc3c(C)cccc3Cl)s2)cc(N2CCN(CCOC(=O)CCC(=O)OCCCO[N+](=O)[O-])CC2)n1`, for which the “Ratio IC50” value in [1] was found to be 3.13. Besides, the pIC50 in series [2] (Mus musculus, MEF, 72 h) was 6.35; in series [3] (Mus musculus, MEF, 72 h), 5.85.

With `Cc1nc(Nc2ncc(C(=O)Nc3c(C)cccc3Cl)s2)cc(N2CCN(CCOC(=O)CCC(=O)O[C@@H]3CO[C@H]4[C@@H]3OC[C@@H]4O[N+](=O)[O-])CC2)n1`, the “Ratio IC50” value in series [1] is 0.61. Further, the pIC50 was 6.27 in series [2] (Mus musculus, MEF, 72 h) and 6.48 in series [3] (Mus musculus, MEF, 72 h).

On to `Cc1nc(Nc2ncc(C(=O)Nc3c(C)cccc3Cl)s2)cc(N2CCN(CCO)CC2)n1` [DASATINIB ANHYDROUS], for which the Activity entry in series [16] is “Non-toxic”. In series [1], the “Ratio IC50” value came out at 5.55. The outcome with Mus musculus [5], in the series on Mus musculus [6], in the series with Mus musculus [7], in the series with Mus musculus [8], with HTM [11] and with Mus musculus [12] was Active. For the same compound, the result with Mus musculus [13] was Active. For the same compound, the pIC50 in series [2] (Mus musculus, MEF, 72 h) was 6.29; in series [3] (Mus musculus, MEF, 72 h), 5.55. Also, the result in the series on Mus musculus [18] and in the series on Mus musculus [15] was inactive.

Turning to `Cc1nc(Nc2ncc(C(=O)Nc3c(C)cccc3Cl)s2)cc(N2CCN(CCOC(=O)CCC(=O)OCCOc3no[n+]([O-])c3C)CC2)n1`, the “Ratio IC50” value in series [1] was found to be 2.73. For the same compound, the pIC50 in [2] (Mus musculus, MEF, 72 h) was 6.31; in series [3] (Mus musculus, MEF, 72 h), 5.87.

`Cc1nc(Nc2ncc(C(=O)Nc3c(C)cccc3Cl)s2)cc(N2CCN(CCOC(=O)CCC(=O)OCCCCOc3no[n+]([O-])c3S(=O)(=O)c3ccccc3)CC2)n1`: in [1], the “Ratio IC50” value stood at 1.9. Further, the pIC50 in series [2] (Mus musculus, MEF, 72 h) was 5.91; in series [3] (Mus musculus, MEF, 72 h), 5.63.

The term pIC50 denotes −log10 of the IC50, conventionally taken in molar units.
